Measurements taken from patent US12389911B2, “Benzimidazole compound or salt thereof, agricultural and horticultural insecticidal and acaricidal agent containing said compound, and method for using same” (NIHON NOHYAKU CO., LTD., priority 2019, dated 2025).

Legend:
Assay type in all cases: in vivo
[1] = tested on: Small brown planthopper (Laodelphax striatellus); assay: Insecticidal test on small brown planthopper (rice seedling dip); details: 500 ppm, rice seedlings dipped 30 seconds, ten 3rd-instar larvae, 8 days after inoculation
Source text: Insecticidal Test on Small Brown Planthopper (Laodelphax striatellus)
The benzimidazole compounds represented by the general formula (1) of the present invention or salts thereof were separately dispersed in water and diluted to 500 ppm. Rice plant seedlings (variety: Nihonbare) were dipped in the agrochemical dispersions for 30 seconds. After air-dried, each seedling was put into a separate glass test tube and inoculated with ten 3rd-instar larvae of small brown planthopper, and then the glass test tubes were capped with cotton plugs. At 8 days after the inoculation, survival rates were calculated from the numbers of surviving larvae and dead larvae, the corrected mortality rate was calculated according to the formula shown below, and the insecticidal efficacy was evaluated according to the criteria shown below. Corrected mortality rate (%)=(Survival rate in a non-treatment plot−Survival rate in a treatment plot)/(Survival rate in a non-treatment plot)×100 [Expression 2] Criteria: • A: the corrected mortality rate is 100%. • B: the corrected mortality rate is 90 to 99%. • C: the corrected mortality rate is 80 to 89%. • D: the corrected mortality rate is 50 to 79%.

[2] = tested on: Two-spotted spider mite (Tetranychus urticae); assay: Acaricidal action on two-spotted spider mite (kidney bean leaf disk spray); details: 500 ppm, adult females, 25° C., two days after treatment
How it was run: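 Kidney bean leaf disks (2 cm) carrying adult female T. urticae were sprayed with compound dispersion at 500 ppm and held at 25 °C. Dead mites counted 2 days later and corrected mortality calculated against untreated plots; 10 adults per plot, in duplicate.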

[3] = tested on: Green peach aphid (Myzus persicae); assay: Test for control efficacy on green peach aphid (foliar application on Chinese cabbage); details: 500 ppm, foliar application to potted Chinese cabbage, 6 days after application
Source text: Test for Control Efficacy on Green Peach Aphid (Myzus persicae) Chinese cabbage plants were planted in plastic pots (diameter: 8 cm, height: 8 cm), green peach aphids were propagated on the plants, and the number of surviving Green peach aphids in each pot was counted. The benzimidazole compounds represented by the general formula (1) of the present invention or salts thereof were separately dispersed in water and diluted to 500 ppm. The agrochemical dispersions were applied to the foliage of the potted Chinese cabbage plants. After the plants were air-dried, the pots were kept in a greenhouse. At 6 days after the foliar application, the number of surviving Green peach aphids on the Chinese cabbage plant in each pot was counted, the control rate was calculated according to the formula shown below, and the control efficacy was evaluated according to the criteria shown below. Control rate=100−{(T×Ca)/(Ta×C)}×100 [Expression 1] Ta: the number of survivors before the foliar application in a treatment plot T: the number of survivors after the foliar application in a treatment plot Ca: the number of survivors before the foliar application in a non-treatment plot C: the number of survivors after the foliar application in a non-treatment plot Criteria • A: the control rate is 100%. • B: the control rate is 90 to 99%. • C: the control rate is 80 to 89%. • D: the control rate is 50 to 79%.

[4] = tested on: Diamondback moth (Plutella xylostella); assay: Insecticidal test on diamondback moth (dip of Chinese cabbage seedlings with laid eggs); details: 500 ppm, seedlings with laid eggs dipped about 30 seconds, 25° C., 6 days after dip treatment
Source text: Insecticidal Test on Diamondback Moth (Plutella xylostella)
Adults of diamondback moth were released onto Chinese cabbage seedlings and allowed to lay eggs thereon. At 2 days after the release of the adults, the Chinese cabbage seedlings with laid eggs were dipped for about 30 seconds in agrochemical dispersions diluted to 500 ppm, each of which contained a different benzimidazole compound represented by the general formula (1) of the present invention or salt thereof as an active ingredient. After air-dried, the seedlings were kept in a thermostatic chamber at 25° C. At 6 days after the dip treatment, the number of hatched larvae per plot was counted, the corrected mortality rate was calculated according to the formula shown below, and the insecticidal efficacy was evaluated according to the criteria of Test Example 2. This test was conducted in triplicate using 10 adults of diamondback moth per plot. Corrected mortality rate (%)=(Number of hatched larvae in a non-treatment plot−Number of hatched larvae in a treatment plot)/(Number of hatched larvae in a non-treatment plot)×100 [Expression 3]

## C=Cc1cn(-c2nc3ccccc3n2S(=O)(=O)CC)nc1C(F)(F)F [Compound 2-21]
[1]
  insecticidal efficacy (corrected mortality rate), activity level: D or higher
[2]
  acaricidal efficacy (corrected mortality rate), activity level: D or higher

## CCS(=O)(=O)n1c(-n2cnc(CCc3ccc(Cl)cc3Cl)c2)nc2ccccc21 [Compound 1-13]
[3]
  control efficacy (control rate), activity level: D or higher
[2]
  acaricidal efficacy (corrected mortality rate), activity level: D or higher

## CCS(=O)(=O)n1c(-n2cnc(C(F)(C(F)(F)F)C(F)(F)F)c2)nc2ccccc21 [Compound 1-22, 1-ethanesulfonyl-2-(4-heptafluoroisopropylimidazol-1-yl)benzimidazole]
[1]
  insecticidal efficacy (corrected mortality rate), activity level: D or higher
[2]
  acaricidal efficacy (corrected mortality rate), activity level: D or higher

## CCS(=O)(=O)n1c(-n2cnc(CCc3ccc(C(F)(F)F)cc3)c2)nc2ccccc21 [Compound 1-11]
[4]
  insecticidal efficacy (corrected mortality rate), activity level: D or higher
[2]
  acaricidal efficacy (corrected mortality rate), activity level: D or higher

## CCS(=O)(=O)n1c(-n2cc(C(=O)OC(C)C)c(C(F)(F)F)n2)nc2ccccc21 [Compound 2-53]
[3]
  control efficacy (control rate), activity level: D or higher
[2]
  acaricidal efficacy (corrected mortality rate), activity level: D or higher

## CCS(=O)(=O)n1c(-n2cc(CCc3ccccc3)cn2)nc2ccccc21 [Compound 2-3]
[4]
  insecticidal efficacy (corrected mortality rate), activity level: D or higher
[2]
  acaricidal efficacy (corrected mortality rate), activity level: D or higher

## CCc1nn(-c2nc3ccccc3n2S(=O)(=O)CC)cc1C(=O)OC(C)(C)C [Compound 2-49]
[4]
  insecticidal efficacy (corrected mortality rate), activity level: D or higher
[2]
  acaricidal efficacy (corrected mortality rate), activity level: D or higher

## CCS(=O)(=O)n1c(-n2cc(Br)c(OCC(F)(F)C(F)(F)F)n2)nc2ccccc21 [Compound 2-40]
[3]
  control efficacy (control rate), activity level: D or higher
[2]
  acaricidal efficacy (corrected mortality rate), activity level: D or higher

## CCS(=O)(=O)n1c(-n2cc(C(=O)OC(C)(C)C)cn2)nc2ccccc21 [Compound 2-11]
[3]
  control efficacy (control rate), activity level: D or higher
[2]
  acaricidal efficacy (corrected mortality rate), activity level: D or higher

## CCS(=O)(=O)n1c(-n2cnc(CCc3ccc(Cl)cc3)c2)nc2ccccc21 [Compound 1-12]
[3]
  control efficacy (control rate), activity level: D or higher
[2]
  acaricidal efficacy (corrected mortality rate), activity level: D or higher

## CCS(=O)(=O)n1c(-n2cc(Cl)c(C(F)(F)F)n2)nc2ccccc21 [Compound 2-13]
[3]
  control efficacy (control rate), activity level: D or higher
[2]
  acaricidal efficacy (corrected mortality rate), activity level: D or higher

## CCCCCC/C=C\c1cn(-c2nc3ccccc3n2S(=O)(=O)CC)cn1 [Compound 1-6]
[3]
  control efficacy (control rate), activity level: D or higher
[2]
  acaricidal efficacy (corrected mortality rate), activity level: D or higher

## CCS(=O)(=O)n1c(-n2cc(SC(C)C)c(C(F)(F)F)n2)nc2ccccc21 [Compound 2-32]
[1]
  insecticidal efficacy (corrected mortality rate), activity level: D or higher
[2]
  acaricidal efficacy (corrected mortality rate), activity level: D or higher

## CCS(=O)(=O)n1c(-n2cc(Br)c(Br)n2)nc2ccccc21 [Compound 2-34]
[3]
  control efficacy (control rate), activity level: D or higher
[2]
  acaricidal efficacy (corrected mortality rate), activity level: D or higher

## CCS(=O)(=O)n1c(-n2ccc(C(F)(F)F)n2)nc2ccccc21 [Compound 2-12]
[1]
  insecticidal efficacy (corrected mortality rate), activity level: D or higher
[2]
  acaricidal efficacy (corrected mortality rate), activity level: D or higher

## CCS(=O)(=O)n1c(-n2cnc(COCC(F)(F)C(F)(F)C(F)(F)F)c2)nc2ccccc21 [Compound 1-32]
[3]
  control efficacy (control rate), activity level: D or higher
[2]
  acaricidal efficacy (corrected mortality rate), activity level: D or higher

## CCS(=O)(=O)n1c(-n2ccc(OCC(F)(F)C(F)(F)F)n2)nc2ccccc21 [Compound 2-38]
[4]
  insecticidal efficacy (corrected mortality rate), activity level: D or higher
[2]
  acaricidal efficacy (corrected mortality rate), activity level: D or higher

## CCS(=O)(=O)n1c(-n2cc(Cl)c(OCC(F)(F)C(F)(F)F)n2)nc2ccccc21 [Compound 2-39]
[3]
  control efficacy (control rate), activity level: D or higher
[2]
  acaricidal efficacy (corrected mortality rate), activity level: D or higher

## CCS(=O)(=O)n1c(-n2cc(CCc3ccccc3)c(C(F)(F)F)n2)nc2ccccc21 [Compound 2-23]
[4]
  insecticidal efficacy (corrected mortality rate), activity level: D or higher
[2]
  acaricidal efficacy (corrected mortality rate), activity level: D or higher

## CCS(=O)(=O)n1c(-n2cc(C(=O)OC(C)(C)C)c(C(F)F)n2)nc2ccccc21 [Compound 2-51]
[3]
  control efficacy (control rate), activity level: D or higher
[2]
  acaricidal efficacy (corrected mortality rate), activity level: D or higher

## CS(=O)(=O)n1c(-n2cc(I)c(C(F)(F)F)n2)nc2ccccc21 [Compound 2-15]
[3]
  control efficacy (control rate), activity level: D or higher
[2]
  acaricidal efficacy (corrected mortality rate), activity level: D or higher

## CCS(=O)(=O)n1c(-n2cc(/C=C/C(=O)OC(C)(C)C)c(C(F)(F)F)n2)nc2ccccc21 [Compound 2-24]
[3]
  control efficacy (control rate), activity level: D or higher
[2]
  acaricidal efficacy (corrected mortality rate), activity level: D or higher

## CCS(=O)(=O)n1c(-n2cc(C(=O)Oc3c(C)cccc3C)c(C(F)(F)F)n2)nc2ccccc21 [Compound 2-29]
[1]
  insecticidal efficacy (corrected mortality rate), activity level: D or higher
[2]
  acaricidal efficacy (corrected mortality rate), activity level: D or higher

## CCS(=O)(=O)n1c(-n2cc(C3CC3)c(C(F)(F)F)n2)nc2ccccc21 [Compound 2-20]
[3]
  control efficacy (control rate), activity level: D or higher
[2]
  acaricidal efficacy (corrected mortality rate), activity level: D or higher

## CCS(=O)(=O)n1c(-n2cnc(CCc3ccccc3)c2)nc2ccccc21 [Compound 1-9]
[1]
  insecticidal efficacy (corrected mortality rate), activity level: D or higher
[2]
  acaricidal efficacy (corrected mortality rate), activity level: D or higher

## CCS(=O)(=O)n1c(-n2nc(C(F)(F)F)cc2C)nc2ccccc21 [Compound 2-17]
[1]
  insecticidal efficacy (corrected mortality rate), activity level: D or higher
[2]
  acaricidal efficacy (corrected mortality rate), activity level: D or higher

## CCS(=O)(=O)n1c(-n2ccc(C(=O)OC(C)(C)C)n2)nc2ccccc21 [Compound 2-43]
[3]
  control efficacy (control rate), activity level: D or higher
[2]
  acaricidal efficacy (corrected mortality rate), activity level: D or higher

## CCS(=O)(=O)n1c(-n2cc(C(=O)OCC(C)(C)C)c(C(F)(F)F)n2)nc2ccccc21 [Compound 2-28]
[3]
  control efficacy (control rate), activity level: D or higher
[2]
  acaricidal efficacy (corrected mortality rate), activity level: D or higher

## CCS(=O)(=O)n1c(-n2cnc(C(F)(F)F)n2)nc2ccccc21 [Compound 3-1]
[3]
  control efficacy (control rate), activity level: D or higher
[2]
  acaricidal efficacy (corrected mortality rate), activity level: D or higher

## CCS(=O)(=O)n1c(-n2cnc(Cc3ccccc3)c2)nc2ccccc21 [Compound 1-8]
[3]
  control efficacy (control rate), activity level: D or higher
[2]
  acaricidal efficacy (corrected mortality rate), activity level: D or higher
